# Assay results published in patent EP4559463A1, “EDARAVONE OR ITS SALTS FOR USE IN THE TREATMENT OF OXIDATIVE STRESS-MEDIATED NEURODEGENERATIVE DISORDERS” (Ferrer Internacional, S.A., priority 2023, dated 2025).
# “Also recorded” adds a separate entry of the source. Like-named read-outs stand apart in the source and are kept apart here.
# Tests used:
# dogs [1] = conditions: continuous i.v. infusion, cited from earlier work
# [2] = Vitamin B6 monitoring (plasma pyridoxal 5'-phosphate) within the clinical study; format: in vivo, human; design: Plasma vitamin B6 (pyridoxal 5'-phosphate), Change from baseline, Median / Plasma vitamin B6 (pyridoxal 5'-phosphate), Change from baseline, Mean: unit not given here; conditions: for Plasma vitamin B6 (pyridoxal 5'-phosphate), Observed value, Median / Plasma vitamin B6 (pyridoxal 5'-phosphate), Observed value, Mean: no unit in table
# Method: Therefore, potential neurotoxicity by NCS assessment and by PLP levels during the conduct of the current study was monitored.
# Plasmatic concentration of vitamin B6 was monitored at each visit. The normal range of plasma concentration of vitamin B6 in humans (measured as pyridoxal 5'-phosphate) is […], values below this range are considered 'low' and values above, 'high'. In the inclusion visit at time zero patients were classified as 'normal', 'low' or 'high' and the change of this classification was assessed at each visit.
# The fact that most of the patients show no change in the classification as 'normal', 'low', or 'high' during the study is a sign of low neurotoxicity of the product. This is the case for patient showing no shift from baseline, for instance 'Normal to Normal' patients.
# dogs [3] = conditions: cited from earlier work
# monkeys = conditions: continuous i.v. infusion of 1000 mg/kg/day, 28 days; cited from earlier work
# [4] = test system: patients with Amyotrophic Lateral Sclerosis (ALS); experiment: Clinical assessment of neuropathy in the clinical study of edaravone granules for oral solution; format: in vivo, human
# Method: A clinical study was started to investigate the efficacy and safety of 100 mg of edaravone granules for oral solution (composition shown in table 1 above) in 300 patients with Amyotrophic Lateral Sclerosis (ALS) following treatment for 48 or 72 weeks. The first 100 subjects enrolled will have either 72 weeks of follow-up or have reached an intercurrent event, and the rest (about two thirds of enrolled patients) will be followed up to 48 weeks (or have reached an intercurrent event).
# During the treatment, the participants are randomly assigned to receive a daily dose of 100 mg of either edaravone (composition shown in table 1 above) or placebo at a ratio of 2:1 (i.e., two thirds of the patients receive the edaravone formulation and one third receives placebo) for 72 weeks. The study medication, both the placebo and edaravone, is available in single-dose sachets, which must be dissolved in water and taken orally once daily in the morning after a lapse of at least 2 hours from the last meal consumption.
# Several authors and regulatory agencies (see for instance EMA/CHMP/290284/2019, page 134) consider that monitoring of the levels of pyridoxal 5'-phosphate (PLP), the active form of vitamin B6, and testing of motor or sensory nerve conduction, such as Nerve Conduction Studies (NCS) described below, should be carried out in order to allow for early detection of neurotoxicity. In addition to this, clinical assessment of neuropathy of patients was carried out by neurologist.
# Moreover, the percentage of neuropathy found in patients suffering from other chronic diseases such as diabetes, HIV infection or alcoholism is higher than 20 %. When the blinding of the study is broken, the specific percentages of neuropathy could be linked to the edaravone and placebo arms.
# [5] = test system: patients with Amyotrophic Lateral Sclerosis (ALS); experiment: Nerve Conduction Study (NCS) within the clinical study; format: in vivo, human; conditions: for Sural-Radial Amp Ratio (SRAR), Shift from Baseline: Low to Low / Sural-Radial Amp Ratio (SRAR), Shift from Baseline: Low to Normal / Sural-Radial Amp Ratio (SRAR), Shift from Baseline: Normal to Low / Sural-Radial Amp Ratio (SRAR), Shift from Baseline: Normal to Normal / Sural nerve - SNAP Amp, Shift from Baseline: Low to Low / Sural nerve - SNAP Amp, Shift from Baseline: Low to Normal / Sural nerve - SNAP Amp, Shift from Baseline: Normal to Low / Sural nerve - SNAP Amp, Shift from Baseline: Normal to Normal: blinded pool edaravone/placebo 2:1
# Method: A centralized evaluation was performed by neurophysiologists to avoid any bias between sites and to guarantee the safety of patients. The NCS was initially performed for the first 60 enrolled patients at screening, and on weeks 4, 12, and 24. […] NCS main criteria for neuropathy are decreased sural nerve SNAP (sensory nerve action potential) amplitudes or decreased sural/radial nerve amplitude ratio (SRAR), although all data is assessed globally. […] The fact that most of the patients show no change in these values, i.e., that they start with 'normal' and remain 'normal' is a sign of lack of neurotoxicity of the treatment. The appearance of neuropathy may also occur at the normal population for other causes such as diabetes or alcoholism, totally unrelated to any treatment. The NCS protocol evaluates the sensory nerve action potential (SNAP) amplitudes using standard ring-electrodes and predefined sites for both stimulus (antidromic) and recording sites, including standardized distances that also apply for the inter-electrode distances. […] These measures eliminate any unwanted variation due to instrumentational differences. NCS data is evaluated independently at a single specialized unit taking into account reference values provided by participating sites and using age-adjusted reference values. Recordings can be performed on a standard type of electromyograph (EMG) equipment (e.g., Natus Nicolet EDX, Nicolet Viking, Dantec Keypoint, TECA Synergy, Cadwell). The following steps were followed to perform the NCS assessment: • Recording and documentation of temperature at start of the assessment at hand and foot respectively. Limb temperature should be ≥ 31°C, otherwise warming may be considered or alternatively accepted correction factor for decreased temperature could be done. • Unilateral recording of sensory responses of the following nerves (hand, followed by lower limb) was carried out: • ∘ Median nerve (hand, dig II). The distance from the stimulus and recording electrode should be recorded. • ∘ Ulnar nerve (hand, dig V). The distance from the stimulus and recording electrode should be recorded. • ∘ Radial nerve (back of the hand). A standardized distance stimulus-recording electrode of 12 cm should be used. • ∘ Sural nerve (leg, lateral malleolus). A standardized distance stimulus-recording electrode of 12 cm should be used. • Recording of sensory responses were carried out using standardized sides (left or right) for stimulation (assessments were performed on one side only, the same side for each subject was used throughout the study). Electrodes were placed at an interelectrode distance of 2 cm. […] For each nerve, sensory nerve action potential (SNAP) amplitudes were evaluated. Antidromic stimulus were provided to the subjects. Required quality of the NCS included: optimization of the recordings, ensuring flat base line without a slope, omitting stimulus artifacts and background noise, so that markers could be placed appropriately, and true SNAP amplitude values could be obtained accurately. The NCS Ranges of normality considered for this clinical study for SNAP Amp (sensory nerve action potential amplitude) and SCV (sensory conduction velocity) are shown below: Table 4 Normal values for the sensory nerve action potential amplitude (SNAP Amp) for the sural nerve are values higher than 8 µV for subjects with less than 40 years of age, higher than 5 µV for subjects with 40-60 years of age, and higher than 2 µV for subjects with more than 60 years of age. Normal values for the sural-radial Amp ratio (SRAR) are values higher than 0.45 for subjects with 18-39 years, higher than 0.32 for subjects with 40-59 years and higher than 0.19 for subjects with 60 or more years of age.
# beagle dogs = conditions: continuous edaravone infusion; cited from earlier work
# [6] = Visit 1 (Baseline, before treatment), N=163
# [7] = Visit 2 (Week 4), N=159, blinded pool edaravone/placebo 2:1
# [8] = Visit 3 (Week 12), n=109, blinded pool edaravone/placebo 2:1
# [9] = Visit 4 (Week 24), n=59, blinded pool edaravone/placebo 2:1
# [10] = Visit 5 (Week 36), n=12, blinded pool edaravone/placebo 2:1
smiles,measurement,setting,value
"CC1=NN(c2ccccc2)C(=O)C1 [edaravone, 5-methyl-2-phenyl-4H-pyrazol-3-one]",onset of dose-dependent impaired motor function,dogs [1]; 300 mg/kg/day,13 days
same,onset of dose-dependent impaired motor function,dogs [1]; ≥60 mg/kg/day,18 days of treatment
same,finding associated with the loss of motor function,dogs [1],axonal degeneration of peripheral nerves fibres and in the CNS
same,"Plasma vitamin B6 (pyridoxal 5'-phosphate), Observed value, Median","[2]; Screening (before treatment), n=182",41.50
same,"Plasma vitamin B6 (pyridoxal 5'-phosphate), Observed value, Mean","[2]; Screening (before treatment), n=182, normal range 12-128 ng/L",74.90
same,"Plasma vitamin B6 (pyridoxal 5'-phosphate), Observed value, Mean",[2]; [6],76.6
same,"Plasma vitamin B6 (pyridoxal 5'-phosphate), Observed value, Median",[2]; [6],41.0
same,"Plasma vitamin B6 (pyridoxal 5'-phosphate), Change from baseline, Mean",[2]; [7],0.5
same,"Plasma vitamin B6 (pyridoxal 5'-phosphate), Change from baseline, Median",[2]; [7],2.0
same,"Plasma vitamin B6 (pyridoxal 5'-phosphate), Observed value, Mean",[2]; [7],77.10
same,"Plasma vitamin B6 (pyridoxal 5'-phosphate), Observed value, Median",[2]; [7],43.0
same,"Plasma vitamin B6 (pyridoxal 5'-phosphate), Change from baseline, Mean",[2]; [8],-6.8
same,"Plasma vitamin B6 (pyridoxal 5'-phosphate), Change from baseline, Median",[2]; [8],2.0
same,"Plasma vitamin B6 (pyridoxal 5'-phosphate), Observed value, Mean",[2]; [8],69.80
same,"Plasma vitamin B6 (pyridoxal 5'-phosphate), Observed value, Median",[2]; [8],43.0
same,"Plasma vitamin B6 (pyridoxal 5'-phosphate), Change from baseline, Mean",[2]; [9],-0.7
same,"Plasma vitamin B6 (pyridoxal 5'-phosphate), Change from baseline, Median",[2]; [9],4.0
same,"Plasma vitamin B6 (pyridoxal 5'-phosphate), Observed value, Mean",[2]; [9],75.9
same,"Plasma vitamin B6 (pyridoxal 5'-phosphate), Observed value, Median",[2]; [9],45.0
same,"Plasma vitamin B6 (pyridoxal 5'-phosphate), Change from baseline, Mean",[2]; [10],19.2
same,"Plasma vitamin B6 (pyridoxal 5'-phosphate), Change from baseline, Median",[2]; [10],33.5
same,"Plasma vitamin B6 (pyridoxal 5'-phosphate), Observed value, Mean",[2]; [10],95.8
same,"Plasma vitamin B6 (pyridoxal 5'-phosphate), Observed value, Median",[2]; [10],74.5
same,plasmatic concentration of vitamin B6 versus baseline,[2]; monitored at each visit,do not show a decrease; also recorded: not reduced from baseline
same,levels of pyridoxal 5'-phosphate (PLP),dogs [3]; continuous i.v. infusions of 1000 mg/kg/day,reduced
same,onset of the axonal nerve fibre degenerations,dogs [3]; continuously infused i.v. dose 120 mg/kg/day,15 days
same,onset of the axonal nerve fibre degenerations,dogs [3]; continuously infused i.v. dose 300 mg/kg/day,11 days
same,histological correlate in the central and peripheral nervous system,monkeys,minimal to severe nerve fibre degenerations
same,"motor deficits, time of appearance",monkeys,third and fourth week
same,patients showing clinical signs of neuropathy,"[4]; 313 randomized patients, blinded pool edaravone/placebo 2:1, 100 mg oral once daily, treated 6 months to one year and 7 months",2.2%
same,percentage of neuropathy in patients compared with normal population,"[4]; clinical trial with edaravone, normal population about 8 %",not higher than the percentage found in the normal population
same,number of patients showing clinical signs of neuropathy,"[4]; out of 313 randomized patients, blinded pool edaravone/placebo 2:1, treated 6 months to one year and 7 months",7
same,"Sural-Radial Amp Ratio (SRAR), Shift from Baseline: Low to Low","[5]; Visit 2 (Week 4), N=165",9 (5.5) n (%)
same,"Sural-Radial Amp Ratio (SRAR), Shift from Baseline: Low to Normal","[5]; Visit 2 (Week 4), N=165",8 (4.8) n (%)
same,"Sural-Radial Amp Ratio (SRAR), Shift from Baseline: Normal to Low","[5]; Visit 2 (Week 4), N=165",6 (3.6) n (%)
same,"Sural-Radial Amp Ratio (SRAR), Shift from Baseline: Normal to Normal","[5]; Visit 2 (Week 4), N=165",142 (86.1) n (%)
same,"Sural nerve - SNAP Amp, Shift from Baseline: Low to Low","[5]; Visit 2 (Week 4), N=167",3 (1.8) n (%)
same,"Sural nerve - SNAP Amp, Shift from Baseline: Low to Normal","[5]; Visit 2 (Week 4), N=167",0 (0.0) n (%)
same,"Sural nerve - SNAP Amp, Shift from Baseline: Normal to Low","[5]; Visit 2 (Week 4), N=167",2 (1.2) n (%)
same,"Sural nerve - SNAP Amp, Shift from Baseline: Normal to Normal","[5]; Visit 2 (Week 4), N=167",162 (97.0) n (%)
same,"Sural-Radial Amp Ratio (SRAR), Shift from Baseline: Low to Low","[5]; Visit 3 (Week 12), N=112",5 (4.5) n (%)
same,"Sural-Radial Amp Ratio (SRAR), Shift from Baseline: Low to Normal","[5]; Visit 3 (Week 12), N=112",4 (3.6) n (%)
same,"Sural-Radial Amp Ratio (SRAR), Shift from Baseline: Normal to Low","[5]; Visit 3 (Week 12), N=112",10 (8.9) n (%)
same,"Sural-Radial Amp Ratio (SRAR), Shift from Baseline: Normal to Normal","[5]; Visit 3 (Week 12), N=112",93 (83.0) n (%)
same,"Sural nerve - SNAP Amp, Shift from Baseline: Low to Low","[5]; Visit 3 (Week 12), N=115",2 (1.7) n (%)
same,"Sural nerve - SNAP Amp, Shift from Baseline: Low to Normal","[5]; Visit 3 (Week 12), N=115",0 (0.0) n (%)
same,"Sural nerve - SNAP Amp, Shift from Baseline: Normal to Low","[5]; Visit 3 (Week 12), N=115",3 (2.6) n (%)
same,"Sural nerve - SNAP Amp, Shift from Baseline: Normal to Normal","[5]; Visit 3 (Week 12), N=115",110 (95.7) n (%)
same,"Sural-Radial Amp Ratio (SRAR), Shift from Baseline: Low to Low","[5]; Visit 4 (Week 24), N=59",4 (6.8) n (%)
same,"Sural-Radial Amp Ratio (SRAR), Shift from Baseline: Low to Normal","[5]; Visit 4 (Week 24), N=59",1 (1.7) n (%)
same,"Sural-Radial Amp Ratio (SRAR), Shift from Baseline: Normal to Low","[5]; Visit 4 (Week 24), N=59",4 (6.8) n (%)
same,"Sural-Radial Amp Ratio (SRAR), Shift from Baseline: Normal to Normal","[5]; Visit 4 (Week 24), N=59",50 (84.7) n (%)
same,"Sural nerve - SNAP Amp, Shift from Baseline: Low to Low","[5]; Visit 4 (Week 24), N=60",0 (0.0) n (%)
same,"Sural nerve - SNAP Amp, Shift from Baseline: Low to Normal","[5]; Visit 4 (Week 24), N=60",0 (0.0) n (%)
same,"Sural nerve - SNAP Amp, Shift from Baseline: Normal to Low","[5]; Visit 4 (Week 24), N=60",3 (5.0) n (%)
same,"Sural nerve - SNAP Amp, Shift from Baseline: Normal to Normal","[5]; Visit 4 (Week 24), N=60",57 (95.0) n (%)
same,main criteria for neuropathy: decreased sural nerve SNAP amplitudes or decreased sural/radial nerve amplitude ratio (SRAR),[5]; at baseline and at different times during the study,not found in most of the patients
same,plasma levels of vitamin B6,beagle dogs,decreasing plasma levels of vitamin B6
